molecular target: T1, human ALK5 (Homo sapiens, UniProt P36897); assay: ADP-GLO Kinases assay of ALK5 enzymatic activity; type: biochemical; details: purified recombinant human ALK5, TGFβ1 peptide substrate, pIC50 converted to pKi by Cheng-Prusoff, high ATP protocol (15 μM) for very potent compounds, 25° C.
T1 construct: human ALK5 (recombinant TGF β1 N-term GST-tagged, 80-end); GST (N); purchased
T1 sequence (P36897 80-503 limits assumed): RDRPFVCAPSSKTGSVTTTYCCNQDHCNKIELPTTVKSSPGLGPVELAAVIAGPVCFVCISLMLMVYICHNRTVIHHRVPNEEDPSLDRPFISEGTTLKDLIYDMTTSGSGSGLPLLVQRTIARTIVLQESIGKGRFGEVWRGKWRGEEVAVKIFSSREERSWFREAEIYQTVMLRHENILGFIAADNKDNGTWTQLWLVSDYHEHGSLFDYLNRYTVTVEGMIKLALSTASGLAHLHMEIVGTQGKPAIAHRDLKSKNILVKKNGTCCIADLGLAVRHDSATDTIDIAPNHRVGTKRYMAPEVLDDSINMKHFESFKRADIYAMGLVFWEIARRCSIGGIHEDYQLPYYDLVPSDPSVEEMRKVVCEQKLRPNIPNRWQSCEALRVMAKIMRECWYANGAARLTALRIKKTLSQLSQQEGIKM
In short: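 Purified ALK5 preincubated 15 min with compound, then reacted with substrate and ATP; ADP formed read by ADP-Glo luminescence after 120 min or 60 min reaction, all steps at 25° C. 11-point concentration-response; pIC50 converted to pKi via Cheng-Prusoff.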

Ki | Compound
0.126 to 0.316 nM | C[C@@H]1CN(CCC(=O)Nc2cc(Nc3cc(-c4cc(Cl)ccc4F)nnc3SCC[Si](C)(C)C)ncn2)C[C@H](C)N1 [Example 195, N-(6-{[6-(5-chloro-2-fluorophenyl)-3-{[2-(trimethylsilyl)ethyl]sulfanyl}pyridazin-4-yl]amino}pyrimidin-4-yl)-3-(3,5-dimethylpiperazin-1-yl)propanamide]
0.126 to 0.316 nM | CN1CCN(CCC(=O)Nc2cc(Nc3cc(-c4cc(Cl)ccc4F)nnc3SCc3cccc(C(=O)O)c3)ccn2)CC1 [Example 196, 3-({[6-(5-chloro-2-fluorophenyl)-4-({2-[3-(4-methylpiperazin-1-yl)propanamido]pyridin-4-yl}amino)pyridazin-3-yl]sulfanyl}methyl)benzoic acid]
0.126 to 0.316 nM | CN1CCN(CCC(=O)Nc2cc(Nc3cc(-c4cc(Cl)ccc4F)nnc3SCC3(C)CCOC3=O)ccn2)CC1 (stereo not shown) [Example 197, N-(4-{[6-(5-chloro-2-fluorophenyl)-3-{[(3-methyl-2-oxooxolan-3-yl)methyl]sulfanyl}pyridazin-4-yl]amino}pyridin-2-yl)-3-(4-methylpiperazin-1-yl)propanamide]
≤ 0.1 nM | CN1CCN(CCC(=O)Nc2cc(Nc3cc(-c4cc(Cl)ccc4F)nnc3SCc3ccc(C(=O)O)cc3)ccn2)CC1 [Example 203, 4-({[6-(5-chloro-2-fluorophenyl)-4-({2-[3-(4-methylpiperazin-1-yl)propanamido]pyridin-4-yl}amino)pyridazin-3-yl]sulfanyl}methyl)benzoic acid]
0.126 to 0.316 nM | CN1CCC(COC(=O)c2cccc(CSc3nnc(-c4cc(Cl)ccc4F)cc3Nc3ccnc4[nH]ccc34)c2)CC1 [Example 206, (1-methylpiperidin-4-yl)methyl 3-({[6-(5-chloro-2-fluorophenyl)-4-({1H-pyrrolo[2,3-b]pyridin-4-yl}amino)pyridazin-3-yl]sulfanyl}methyl)benzoate]
0.126 to 0.316 nM | CN(C)CCOC(=O)c1cccc(CSc2nnc(-c3cc(Cl)ccc3F)cc2Nc2ccnc3[nH]ccc23)c1 [Example 207, 2-(dimethylamino)ethyl 3-({[6-(5-chloro-2-fluorophenyl)-4-({1H-pyrrolo[2,3-b]pyridin-4-yl}amino)pyridazin-3-yl]sulfanyl}methyl)benzoate]
6.31 nM | COc1nnc(-c2cc(Cl)ccc2F)cc1Nc1ccc2ncsc2c1 [Example C1, [6-(5-Chloro-2-fluorophenyl)-3-methoxypyridazin-4-yl]-1,3-benzothiazol-6-amine, reference compound]

Reference: US20250011299A1, “PYRIDAZINYL AMINO DERIVATIVES AS ALK5 INHIBITORS” (CHIESI FARMACEUTICI S.P.A., priority 2021, published 2025)
